Test results from patent publication US20220251036A1, “DIFLUOROHALOALLYLAMINE SULFONE DERIVATIVE INHIBITORS OF LYSYL OXIDASES, METHODS OF PREPARATION, AND USES THEREOF” (PHARMAXIS LTD., priority 2019, published 2022).

Legend:
[1] = Ultraviolet (UV) absorbance; type: physicochemical; details: from 290 nm to 680 nm, Shimadzu LCMS 2020
Text: Minimising UV light absorption of drugs may avoid risk of phototoxicity and photoallergy. For induction of phototoxicity and/or photoallergy, a chemical must absorb light within the range of natural sunlight (290 to 700 nm). Therefore, compounds with no absorbance across the natural sunlight spectrum are advantageous.

[2] = tested on: scars; assay: Excision injury model in pigs; type: in vivo; details: daily for 12 weeks
Description: Eight full thickness excisions (5×2 cm^2) were made on 5 female juvenile pigs (each weighing 18-20 kg) for a total of 40 injury sites. The entire epidermis and dermal layers of skin were removed by a plastic surgeon in one operation under anaesthesia leaving excisions approximately 5-8 mm in depth. Wounds were dressed and anti-anxiety jackets (Thundershirt; RSPCA) provided to cover wounds. Analgesia was given—buprenorphine injection and fentanyl patch (50 μg/hr) for 10 days, post-surgery—and animals were allowed to recover. The dressings were changed at regular intervals to protect the wounds and prevent infection. Daily treatment started 14 days post-surgery and continued for 12 weeks. […] The surgeons ranked scars in each set of 4 from best to worst (0-3) and the scores for each scar were added and analysed.

Q: What does the source list for NC/C=C(\F)C(F)(F)S(=O)(=O)c1ccccc1 [Compound 1, (Z)-3,4,4-trifluoro-4-(phenylsulfonyl)but-2-en-1-amine]?
A: UV absorbance [1]: no absorbance; scar appearance ([2]; pigs, 0, 0.5, 1.5 and 3% oil in water cream): substantial, dose-dependent improvement; scar visible versus control scars ([2]; pigs, 3% oil in water cream): significantly less scar visible
